Legend:
IL-1β = IL-1β time profile in monocytes, RT-qPCR; type: cell-based, human; conditions: 50 µg/mL, inactivated and LPS (100 ng/mL) activated
Protocol: For closer characterization, we selected dendrimer 1 due to its smaller size and the presence of a cysteine residue that could be used for labelling. […] Furthermore, dendrimer 1 induced the release of IL‐1Ra both with and without LPS activation, but in the latter case the effect was detected only after 18 h incubation (Figure S5e/f).
Enriched monocytes after Percoll centrifugation (4×10^6 cells/3 mL well; 6-well plates) were preincubated for 1 h with or without compounds in RPMI-1640 medium supplemented with 10% heat-inactivated FBS, 50 μg/mL streptomycin, 50 U/mL penicillin, 2 mM L-glutamine, and then incubated for the indicated duration. After the incubation cells were collected, total RNA was extracted, reverse transcribed and analyzed by SYBR Green Master Mix. As a housekeeping gene was used Actin 5'-CAC TGG GGG CTA CTG GAC-3', 3'-AACATGGTGTTGGCAGAAACT-5', IL-1Ra 5'-TTCCTGTTCCATTCAGAGACG -3', 3'-CTTCTGGTTAACATCCCAGATTC -5'.
Figure S5. Dendrimer 1 affected mRNA levels in both LPS -activated and resting monocytes.
Monocytes 4 ×10^6 cells/3 mL in 6 well plates were incubated for indicated time with 50 µg/mL of 1 or without any treatment (NT) (a, c, e); or preincubated for 1 h with 100 ng/mL of LPS, and then with 50 µg/mL of 1 (b, d, f) or without any treatment (NT). […]

[1] = test system: IL-1Ra release from human primary monocytes; experiment: IL-1Ra release from human primary monocytes, immunoassay (ELISA) of supernatants; type: cell-based; design: key: +: Ability to induce IL-1Ra on primary monocytes after 48 h of incubation; Ability to induce IL-1Ra on primary monocytes after 48 h of incubation; conditions: Table S1 initial library; primary monocytes, 48 h
Protocol: As an activity screen we focused on interleukin‐1 receptor antagonist (IL‐1Ra), a cytokine released by circulating antigen presenting cells (APC) in response to GA.[15, 35] […] To test our dendrimers, we quantified by immunoassay the release of IL‐1Ra from human primary monocytes of healthy donors, an easily accessible type of APC, stimulated or not by addition of lipopolysaccharide (LPS), which in our hands provided a reliable read‐out.[15] We tested at defined weight/volume (25 and 50 μg mL^−1 compound as typically reported for GA)[15, 35] to account for a possible activity increase with MW as often observed with dendrimers when using molarity. In the initial screen the levels of secreted IL‐1Ra remained below 1 ng mL^−1 for all the smaller test compounds as well as with the linear peptide analogs of GA.
Figure 2 Cytokine level of IL‐1Ra in supernatants of primary human monocytes of healthy donors treated with peptide dendrimers, evaluated by ELISA (bars, left vertical axis) and mRNA levels (▴, right vertical axis). […] For mRNA levels evaluation, 2×10^6 cells 3 mL^−1 in 6 well plates were incubated with 50 μg mL^−1 dendrimer or GA for 18 h. […]
Enzyme-linked immunosorbent assay (ELISA)
Monocytes (5×10^4 cells/200 μL well; 96-well plates) were preincubated for 1 h with or without compounds in RPMI-1640 medium supplemented with 10% heat-inactivated FBS, 50 μg/mL streptomycin, 50 U/mL penicillin, 2 mM L-glutamine, and 5 μg/mL polymyxin B sulfate and then cultured for 48 h in the presence or absence of LPS (100 ng/mL) (2). The production of IL-1Ra was measured in culture supernatants by commercially available enzyme immunoassay according to manufacture protocol.
Figure S2. Cytokine level of IL-1Ra in supernatants of monocytes for active dendrimers and analogues evaluated by ELISA assay on primary human monocytes of healthy donors. 5×10^4 cells/200 µL in 96 well plates, were incubated with dendrimers or GA as a control for 48 h in presence or absence of LPS (100 ng/mL), in a range of concentrations (50-25 µg/mL) (mean ± SD, n = 2 different experiments). The results are present as the difference between each sample and the non-treated sample to take into account the difference between base line for each donor.
Figure S3. Cytokine level of IL-1Ra in supernatants of monocytes for active dendrimers and […]
presence or absence of LPS (100 ng/mL), in a range of concentrations (100-12.5 µg/mL) (mean ± SD, n = 3 different experiments). […]

[2] = Circular dichroism spectroscopy; type: physicochemical; conditions: 100 μg/mL, 8 mM phosphate buffer pH 7.2/7.4
Protocol: In terms of stereochemistry, activity was lost with D‐enantiomers D‐1 and D‐4, similar to the inactivity reported for D‐enantiomeric GA.[2]
Circular dichroism (CD) experiments were measured on a Jasco J-715 Spectropolarimeter. All the experiments were performed using Hellma Suprasil 110-QS 0.1 cm cuvettes. For each peptide, the measurements were performed in phosphate buffer (PB, pH=7.2, 8 mM) and in the presence of 5 mM dodecylphosphocholine. The concentration of the peptides was 100.0 μg/mL and each sample was measured using one accumulation. The scan rate was 10 nm/min, pitch 0.5 nm, response 16 sec and bandwidth 1.0 nm. The nitrogen flow was kept >8.5 L/min. After each measurement, the cuvettes were washed successively with 1 M HCl, milli-Q H2O and PB buffer. The baseline was recorded under the same conditions and subtracted manually.
Figure S12. Circular dichroism spectra of GA, 1 and 4 (100 μg/mL) in 8 mM phosphate buffer at pH 7.4 (a) or in presence of 5 mM dodecylphosphocholine. Percentage of α-helix and β- sheet was processed by Dichroweb using the CONTIN analysis program and reference set 3.
(1 picture or pasted object on this page, not shown here)

For “(KA)8(KAK)4(KEKA)2KAKEAYCA-NH2 [compound 1, G3 peptide dendrimer]”, the “production of IL-1β” value (IL-1β) was “significantly inhibited”, the “Act. (ability to induce IL-1Ra)” value [1] was “+” and the “conformation by CD spectra” value [2] was “unordered conformation”.

From PMC9298260, “An Immunomodulatory Peptide Dendrimer Inspired from Glatiramer Acetate” (Angewandte Chemie (International Ed. in English), 2021)
